Values quoted from earlier work, collected in patent US9351926B2 (Pharmaceutical Solutions Industry Ltd., priority 2012, dated 2016).

Legend:
[1] = children, overdose
platelet aggregation = details: single dose 400 mg within 8 hours before or within 30 minutes after immediate release aspirin (81 mg)
[2] = low dose (e.g. 1200 mg daily); epidemiological studies

Bioavailability (in vivo)	Excretion (in vivo)	concentration in breast milk (limited studies)	time of peak serum concentrations after ingestion (oral, empty stomach)	time of peak levels after administration (oral, taken with food)	ingested dose that may cause symptoms [1]	interconversion into the active [+]S species (in adults)	Structure (SMILES)	effect on the action of aspirin on thromboxane formation or platelet aggregation (platelet aggregation)	risk of myocardial infarction [2]
49-73%	Renal	very low concentrations	45 min	1 to 2 h	more than 400 mg/kg		CC(C)Cc1ccc(C(C)C(=O)O)cc1 (racemic) [Ibuprofen, (RS)-2-(4-(2-methylpropyl)phenyl) propanoic acid]	decreased effect of aspirin on the formation of thromboxane or platelet aggregation	do not suggest that low dose ibuprofen (e.g. 1200 mg daily) is associated with an increased risk of myocardial infarction
						~60%	CC(C)Cc1ccc([C@@H](C)C(=O)O)cc1 [HR-form]		
